From patent US7544667B2, “Hypocholesterolemic compounds” (Lipideon Biotechnology AG, priority 2003, dated 2009)

System: rabbit brush border membrane vesicles (BBMV)
Assay: inhibition of cholesterol uptake in rabbit brush border membrane vesicles (BBMV)
Format: biochemical
Conditions: applied in donor SUV (9 mol %); scavenger receptor-mediated uptake of radiolabelled cholesterol ester from donor particles into BBMV bilayer
Experimental: The compounds of the invention and ezetimibe (commercially obtained or prepared according to Wu, G. Z. et al., J. Org. Chem. 1999) together with the glucuronide (the metabolite of ezetimibe, prepared according to Vaccaro, W. D.; Davis, H. R. Bioorg. Med. Chem. Lett. 1998, 8, 313-318) as appropriate reference compounds were evaluated by well-established methods to determine their inhibition of cholesterol uptake in rabbit brush border membrane vesicles (BBMV) (Table 1). Briefly, the scavenger receptor-mediated uptake of radiolabelled cholesterol ester from the loaded donor particles into the BBMV bilayer was measured in the presence of various compounds of the invention and appropriate reference compounds (Hauser, H. et al., Biochemistry 1998, 37, 17843-17850; Werder, M. et al., Biochemistry 2001, 40, 11643-11650; Boffelli, D. et al., FEBS Lett. 1997, 411, 7-11.)

## O=C1[C@H](CC[C@H](O)c2ccc(F)cc2)[C@@H](c2ccc(O)cc2)N1c1ccc(F)cc1 [Ezetimibe, reference compound]
  Inhibition in (%): 16 ± 4%

## O=C(O)[C@H]1O[C@@H](Oc2ccc([C@@H]3[C@@H](CC[C@H](O)c4ccc(F)cc4)C(=O)N3c3ccc(F)cc3)cc2)[C@H](O)[C@@H](O)[C@@H]1O [Glucuronide, reference compound]
  Inhibition in (%): 19 ± 4%

## COC1OC(CS(=O)(=O)Oc2ccc([C@@H]3[C@@H](CC[C@H](O)c4ccc(F)cc4)CN3c3ccc(F)cc3)cc2)C(O)C(O)C1O (some centres unmarked) [IX]
  Inhibition in (%): 27 ± 4%

## COC1OC(CS(=O)(=O)Oc2ccc([C@@H]3[C@@H](CC[C@H](O)c4ccc(F)cc4)C(=O)N3c3ccc(F)cc3)cc2)C(O)C(O)C1O (some centres unmarked) [IXb]
  Inhibition in (%): 20 ± 5%

## O=C1[C@H](CC[C@H](O)c2ccc(F)cc2)[C@@H](c2ccc(OCC3OC(CO)C(O)C(O)C3O)cc2)N1c1ccc(F)cc1 (some centres unmarked) [VIII]
  Inhibition in (%): 15 ± 3%

## CS(=O)(=O)Oc1ccc([C@@H]2[C@@H](CC[C@H](O)c3ccc(F)cc3)CN2c2ccc(F)cc2)cc1 [VII]
  Inhibition in (%): 22 ± 2%

## CS(=O)(=O)Oc1ccc([C@@H]2[C@@H](CC[C@H](O)c3ccc(F)cc3)C(=O)N2c2ccc(F)cc2)cc1 [VI]
  Inhibition in (%): 30 ± 4%

## O=C1[C@H](CC[C@H](O)c2ccc(F)cc2)[C@@H](c2ccc(OS(=O)(=O)c3ccccc3)cc2)N1c1ccc(F)cc1 [XIV]
  Inhibition in (%): 26 ± 3%

## O=C1[C@H](CC[C@H](O)c2ccc(F)cc2)[C@@H](c2ccc(OS(=O)(=O)CC3OC(CO)C(OC4OC(CO)C(O)C(O)C4O)C(O)C3O)cc2)N1c1ccc(F)cc1 (some centres unmarked) [XVIII]
  Inhibition in (%): 41 ± 4%

## O=C1[C@H](CC[C@H](O)c2ccc(F)cc2)[C@@H](c2ccc(OCC3OC(CO)C(OC4OC(CO)C(O)C(O)C4O)C(O)C3O)cc2)N1c1ccc(F)cc1 (some centres unmarked) [XVII]
  Inhibition in (%): 28 ± 4%

## O=C(O)c1cc(S(=O)(=O)Oc2ccc([C@@H]3[C@@H](CC[C@H](O)c4ccc(F)cc4)C(=O)N3c3ccc(F)cc3)cc2)ccc1O [XVI]
  Inhibition in (%): 21 ± 5%

## O=S(=O)(Oc1ccc([C@@H]2[C@@H](CC[C@H](O)c3ccc(F)cc3)CN2c2ccc(F)cc2)cc1)c1ccccc1 [XV]
  Inhibition in (%): 19 ± 3%

## O=C1O[C@H](CC[C@H](O)c2ccc(F)cc2)[C@@H](c2ccc(O)cc2)N1c1ccc(F)cc1 [XXI]
  Inhibition in (%): 19 ± 2%

## O=C1[C@H](CC[C@H](O)c2ccc(F)cc2)[C@@H](c2ccc(OS(=O)(=O)CC3OC(CO)C(O)C(O)C3O)cc2)N1c1ccc(F)cc1 (some centres unmarked) [X]
  Inhibition in (%): 15 ± 3%
